Assay results from patent publication US20230150951A1, “2,5- OR 2,6-DISUBSTITUTED HYDROQUINONE DERIVATIVES WITH AT LEAST ONE CARBOXY, SULFO OR AMIDO GROUP USEFUL AS MEDICAMENTS” (OM PHARMA SA, priority 2020, published 2023).
“Also recorded” adds a separate entry of the source.

Tested on: acute pancreatitis murine model
Experiment: Caerulein-induced acute pancreatitis murine model
Format: in vivo, Balb/c mice
Design: Serum IL33 level / Serum TGF-B level: unit not given here
Details: for Schmidt Score (H&E): induced + vehicle = 10, non-induced = 0; for Pancreas IL33 level / Pancreas MPO activity / Pancreas TGF-B level: terminal pancreatic tissue; for Serum IL33 level / Serum TGF-B level / Serum amylase level / Serum lipase level: terminal serum; for pancreatic tissue levels of IL33: compared to the induced group
Method: Therapeutic efficacy of the compounds according to the present invention was assessed on an acute pancreatitis murine model. Tissue samples were obtained to allow post in-life analysis of pancreatitis parameters. Plasma samples were also obtained to assess animal exposure levels after administration of the compounds.
Animals: A total of 70 female Balb/c mice aged 8-10 weeks weighing approximately 20-25 g were used for the study (Charles River). After 7 days acclimatization, they were allocated into the different groups. […] Cages, bedding, and water were sanitized before use. Animals were provided with Corn-o-cobs enrichment bedding to provide environment enrichment and nesting material. […] The animal holding room were maintained as follows—room temperature at 20-24° C., humidity at 30-70% and a 12 h light/dark cycle used. Although animals used in this study were immuno-competent, preparation of dosing solutions and dosing/weighing of animals were carried out in a sterile biosafety cabinet.
Final formulation was in 5% DMSO, 10% Solutol, 10% PEG400, 75% 0.9% Saline and pH adjusted to 7 with 0.5M NaOH solution.
Final formulation is in 5% DMSO, 10% Solutol, 10% PEG400, 75% 0.9% Saline and pH adjusted to 7 with 0.5M NaOH solution. For per os (PO) dosing IVc-059a is formulated in water. Drug solutions were formulated on the day of dosing.
The purposes of this study were to assess efficacy compounds in an acute pancreatitis model (14 days), generate tissue samples to allow post in-life analysis of pancreatitis parameters and generate four plasma samples to assess animal exposure levels after first and last injection obtained from blood samples taken 1 h and 24 h after first and last injection.
Study Design: On the first study day animals were randomly be assigned to treatment groups, ensuring an equal spread of bodyweight. Mice (except negative control group) were treated with test compounds were given 5 minutes prior to caerulein dosing, followed by injection with caerulein at […] via intraperitoneal route (IP) daily during the study.
Treatment of test compounds were given 5 minutes prior to caerulein dosing.
Sampling and post in-life analyses: at times indicated above a whole blood sample (60 μl) were taken from the lateral tail vein into tubes coated with K2-EDTA. Plasma samples were prepared and stored frozen at −20° C. Plasma samples were sent to client bioanalysis provider Eurofins (FR) for quantification of compound.
Terminal Sampling: Prior to termination animals were weighed. Terminal study animals were culled via CO2 inhalation. A terminal blood sample was taken via cardiac puncture and plasma prepared. Lipase and Amylase activities were measured via ELISA using commercially available ELISA kits. Remaining plasma was stored for future cytokine analyses. Pancreas tissue was resected and weighed, and a section ([…]) snap frozen and analysed for quantification of compound in pancreas sample. A section ([…]) was processed for measurement of MPO activity, IL-33 and TGF-B levels via ELISA. The remainder was fixed in formalin and embedded in paraffin wax. H&E staining was carried out and section assessed using Schmidts standard scoring system, examining: edema, inflammatory infiltration, parenchymal necrosis, haemorrhage. Massons' Trichrome staining was carried out and area covered by fibrotic tissue quantified digitally using QuPath software. Terminal serum samples was used to assess blood chemistry using an IdeXX CHEM15 and LYTE4 clip (4 animals per treatment group).
Histopathology assessment of pancreatic injury based on 4 criteria: Oedema, Inflammatory infiltration, Parenchymal necrosis, Haemorrhage and scored as described below.
Schmidt score is the evaluation of the efficacy of the compounds based on the four histopathology criteria as described in the table below.

[1] = 1st experiment, caerulein induced, 15 mg/kg IV, Ib-010a and IVc-059a 150 mg/kg PO, Pirfenidone 40 mg/kg IV
[2] = 1st experiment, 15 mg/kg IV, Ib-010a and IVc-059a 150 mg/kg PO, Pirfenidone 40 mg/kg IV
[3] = second experiment, IV, 15 mg/kg, Pirfenidone 100 mg/kg

| Structure (SMILES) | Acinar cell necrosis (group mean score) [1] | Haemorrhage (group mean score) [1] | Interstitial oedema (group mean score) [1] | Mean terminal BW (% of initial) [1] | Mean terminal pancreas weight [1] | Pancreas histopathology observations (H&E) [1] | Schmidt Score (H&E) [1] | Pancreas IL33 level [2] | Pancreas MPO activity [2] | Pancreas TGF-B level [2] | Serum IL33 level [2] | Serum TGF-B level [2] | Serum amylase level [2] | Serum lipase level [2] | pancreatic tissue levels of IL33 (first experiment, IV) | further results |
| --- | --- | --- | --- | --- | --- | --- | --- | --- | --- | --- | --- | --- | --- | --- | --- | --- |
| O=C(O)c1cc(NC(=O)c2cc(O)c(C(=O)Nc3ccccc3-c3nnn[nH]3)cc2O)ccc1O [Ic-001a-Tz/004a, 5-(4-(2-(1H-tetrazol-5-yl)phenylaminocarbonyl)-2,5-dihydroxybenzamido)-2-hydroxy benzoic acid] | 1.5 | 1.0 | 1.6 | 93.5 % of initial | 0.104 g | Oedema observed throughout pancreas; also recorded: Mild haemorrhage observed; also recorded: Acinar cell necrosis observed; also recorded: Leukocyte infiltration throughout; also recorded: Disruption to the basophilic region | 6.9 | 180 ± 54 | 2.15 | 369 ± 195 | 35.43 | 8.99 | 36.51 | 8.21 | significant decrease | Leukocyte infiltration (group mean score) [1]: 2.8 |
| O=C(Nc1ccccc1-c1nnn[nH]1)c1cc(O)c(C(=O)Nc2ccccc2-c2nnn[nH]2)cc1O [Ic-001aTz2, N1,N4-bis(2-(1H-tetrazol-5-yl)phenyl)-2,5-dihydroxyterephthalamide] | – | – | – | – | – | – | – | – | – | – | – | – | – | – | – | Amylase [3]: 50.912 mU/mL; IL-33 [3]: 493 ± 126 ng/mL; Lipase [3]: 8.305 mU/mL; MPO [3]: 2.63 ± 0.63 U/mg; Schmidt Score [3]: 3.9 ± 0.8; TGF-B [3]: 696 ± 448 ng/mL; Trichome staining (Fibrosis % area) [3]: 1.366 ± 0.562 % area |
| O=C(O)c1cc(NC(=O)c2cc(O)c(C(=O)Nc3ccc(O)c(C(=O)O)c3)cc2O)ccc1O [Ic-007a, 5-(4-(3-carboxy-4-hydroxyphenylaminocarbonyl)-2,5-dihydroxybenzamido)-2-hydroxy benzoic acid] | 1.0 | 1.0 | 1.0 | 91.2 % of initial | 0.109 g | Mild oedema observed; also recorded: Mild haemorrhage observed; also recorded: Mild acinar cell necrosis observed; also recorded: Leukocyte infiltration observed; also recorded: Disruption to the basophilic region | 6.0 | 147 ± 47 | 1.65 | 188 ± 77 | 34.93 | 6.17 | 34.86 | 9.28 | significant decrease | TGF-B levels in pancreas (first experiment, IV): decreased significantly |
